In paper PMC12322260, “Anticancer activity of triterpene glycosides from the sea star Solaster pacificus” (Scientific Reports, 2025):
Several values for one entry are separate records, joined by “and”; a condition that tells them apart may be missing. Equal values may be shown once.

Key:
Format in all cases: cell-based, human
22Rv1 cells [1] = assay: Drug combination MTT assay, SynergyFinder ZIP analysis; conditions: 22Rv1, 48 h
Description: (§1) Fig. 5 Effects of CuC1 in combination with taxanes and platinum agents. PC3-DR and 22Rv1 cells were co-treated with cisplatin (Cis), carboplatin (Carbo), docetaxel (Doce), or cabazitaxel (Caba) in combination with CuC1 at the indicated concentrations for 48 h. Cellular viability was evaluated using the MTT assay (number of biological replicates n = 3.) and is represented in the Supplementary Table S2. The cytotoxic effects were further analyzed, and 3D heat maps were constructed using SynergyFinder 3.0 software. The drug effects in combination (synergistic, additive, or antagonistic) were analyzed and visualized using the ZIP algorithm and are indicated by δ-score. δ > 10: Synergistic interactions (dark red area); […]: additive effect; δ < − 10: Antagonistic interactions (dark green area). A ZIP synergy score represents a mean δ overall the concentration range used.
(§2) The effect of combinational treatment with established chemotherapies was evaluated as previously reported^54. In brief, cells were exposed to individual drugs of their combinations for 48 h, and the viability was measured by MTT assay and was then analyzed using SynergyFinder 3.0 software (https://synergyfinder.fimm.fi) and the ZIP score algorithm. Statistical analysis was conducted automatically by the software using its inbuilt algorythms based on the input data type and size.

PC3-DR cells [2] = assay: as above; conditions: 48 h
Description: as §1, §2

[3] = test system: non-cancer PNT2, RWPE-1, HEK293T, MRC-9 cells vs cancer PC3, 22Rv1, DU145, VCaP, LNCaP cells; assay: Selectivity index from MTT IC50 values; conditions: [mean IC50 in non-cancer cells] / [mean IC50 in cancer cells]; Doce IC50 in PNT2 and MRC-9 assumed 500 nM
PNT2 cells = assay: MTT cytotoxicity assay; conditions: PNT2, 48 h, mean ± SD
Excerpt: (§3) The cell lines were purchased from ATCC (Manassas, VA, USA) or ECACC (Salisbury, UK). The following cell lines were used: Human prostate cancer cells LNCaP (ATCC; RRID:CVCL_0395), VCaP (ECACC; RRID:CVCL_2235), 22Rv1 (ATCC; RRID:CVCL_1045), PC3 (ATCC; RRID:CVCL_0035), and DU145 (ATCC; RRID:CVCL_0105); human prostate non-cancer cells PNT2 (ATCC; RRID:CVCL_2164) and RWPE-01 (ATCC; RRID:CVCL_3791). Human non-cancer embryonic kidney cells HEK293T (ECACC; RRID:CVCL_0063) and human fibroblast cells MRC-9 (ECACC; RRID:CVCL_2629). The docetaxel-resistant cells PC3-DR were generated by long-term treatment of human prostate cancer PC3 cells with sublethal concentrations of docetaxel as previously described[32] and were provided by Prof. Z. Culig (Innsbruck Medical University, Austria). All cell lines were recently authenticated by a commercial service (Multiplexion GmbH, Heidelberg, Germany) and were cultured as previously described[58],[59]. Cells were kept in culture for a maximum of three months and were routinely examined for bacterial, fungal, and mycoplasma infections.

VCaP cells = assay: MTT cytotoxicity assay; conditions: 48 h, mean ± SD
Excerpt: as §3

HEK293T cells = assay: MTT cytotoxicity assay; conditions: 48 h, mean ± SD
Excerpt: as §3

22Rv1 cells [4] = assay: MTT cytotoxicity assay; conditions: 22Rv1, 48 h, mean ± SD
Excerpt: as §3

RWPE-1 cells = assay: MTT cytotoxicity assay; conditions: RWPE-1, 48 h, mean ± SD
Excerpt: as §3

PC3 cells = assay: MTT cytotoxicity assay; conditions: PC3, 48 h, mean ± SD
Excerpt: as §3

MRC-9 cells = assay: MTT cytotoxicity assay; conditions: MRC-9, 48 h, mean ± SD
Excerpt: as §3

LNCaP cells = assay: MTT cytotoxicity assay; conditions: 48 h, mean ± SD
Excerpt: as §3

DU145 cells = assay: MTT cytotoxicity assay; conditions: DU145, 48 h, mean ± SD
Excerpt: as §3

PC3-DR cells [5] = assay: MTT cytotoxicity assay; conditions: 48 h, mean ± SD
Excerpt: as §3

SMILES: N.N.O=C([O-])C1(C(=O)[O-])CCC1.[Pt+2] [Carbo, carboplatin]
- Response (% of effect) (22Rv1 cells [1]; Carbo 12.5 μM alone): 0.01% and 4.629%
- Response (% of effect) (22Rv1 cells [1]; Carbo 25 μM alone): 11.3613% and 13.96%
- Response (% of effect) (22Rv1 cells [1]; Carbo 50 μM alone): 22.27% and 31.0235%
- Response (% of effect) (22Rv1 cells [1]; Carbo 100 μM alone): 32.94% and 38.66%
- Response (% of effect) (PC3-DR cells [2]; Carbo 6.25 μM alone): 0.01% and 9.352%
- Response (% of effect) (PC3-DR cells [2]; Carbo 12.5 μM alone): 6.12% and 8.386%

SMILES: N.N.[Cl][Pt][Cl] [Cis, cisplatin]
- Response (% of effect) (22Rv1 cells [1]; Cis 2.5 μM alone): 17.58% and 11.05%
- Response (% of effect) (22Rv1 cells [1]; Cis 5 μM alone): 26.89% and 27.91%
- Response (% of effect) (22Rv1 cells [1]; Cis 10 μM alone): 40.95% and 37.6%
- Response (% of effect) (PC3-DR cells [2]; Cis 1.25 μM alone): 12.8% and 15.79%
- Response (% of effect) (PC3-DR cells [2]; Cis 2.5 μM alone): 18.7% and 21.63%
- Response (% of effect) (PC3-DR cells [2]; Cis 5 μM alone): 29.8412% and 29.49%
- Response (% of effect) (PC3-DR cells [2]; Cis 10 μM alone): 50.19% and 51.55%
- Selectivity index (SI) [3]: 0.88
- IC50 (PNT2 cells): 9.41 ± 1.82 µM
- IC50 (VCaP cells): 5.02 ± 2.73 µM
- IC50 (HEK293T cells): 6.44 ± 0.65 µM
- IC50 (22Rv1 cells [4]): 0.993 ± 0.2 µM
- IC50 (RWPE-1 cells): 9.02 ± 1.52 µM
- IC50 (PC3 cells): 34.6 ± 6.62 µM
- IC50 (MRC-9 cells): 6.75 ± 2.15 µM
- IC50 (LNCaP cells): 2.75 ± 0.39 µM
- IC50 (DU145 cells): 1.32 ± 0.31 µM
- IC50 (PC3-DR cells [5]): 6.89 ± 2.29 µM

SMILES: CO[C@H]1C(=O)[C@]2(C)[C@@H](OC)C[C@H]3OC[C@@]3(OC(C)=O)[C@H]2[C@H](OC(=O)c2ccccc2)[C@]2(O)C[C@H](OC(=O)[C@H](O)[C@@H](NC(=O)OC(C)(C)C)c3ccccc3)C(C)=C1C2(C)C [Caba, cabazitaxel]
- Response (% of effect) (22Rv1 cells [1]; Caba 0.25 nM alone): 3.714%
- Response (% of effect) (22Rv1 cells [1]; Caba 0.5 nM alone): 20.36% and 24.57%
- Response (% of effect) (22Rv1 cells [1]; Caba 1 nM alone): 27.6928% and 30.03%
- Response (% of effect) (22Rv1 cells [1]; Caba 2 nM alone): 32.86% and 33.2%
- Response (% of effect) (PC3-DR cells [2]; Caba 12.5 nM alone): 26.4286% and 23.41%
- Response (% of effect) (PC3-DR cells [2]; Caba 25 nM alone): 28.07% and 33.73%
- Response (% of effect) (PC3-DR cells [2]; Caba 50 nM alone): 43.53% and 46.12%
- Response (% of effect) (PC3-DR cells [2]; Caba 100 nM alone): 53.45% and 58.01%
